{"source": "patent EP3183253B1", "about": "“SALT OF (R)-3-(4-(7H-PYRROLO [2,3-D]PYRIMIDIN-4-YL)-LH-PYRAZOL-L-YL)-3-CYCLOPENTYLPROPANENITRILE WITH BENZENESULFONIC ACID” (ratiopharm GmbH, priority 2014, dated 2016)", "assay_type_in_all_cases": "physicochemical", "key": {"[1]": {"assay": "Storage stability: solid-state stability by XRPD analysis", "procedure": "The sample was analyzed on a D8 Advance X-ray powder diffractometer (Bruker-AXS, Karlsruhe, Germany). The sample holder was rotated in a plane parallel to its surface at 20 rpm during the measurement. The raw data were analyzed with the program EVA (Bruker-AXS, Germany). The samples were layered onto a silicon specimen holder.\n(§1) Samples were stored in closed and open containers at 25°C/60% rh and at 40°C/75% rh and analyzed after 4, 8 and 12 weeks.\nThe solid-state stability was investigated by XRPD analysis for 25°C/60% rh. The results of evaluation are summarized."}, "[2]": {"assay": "Dynamic vapor sorption experiment (hygroscopicity)", "details": "25°C, reducing humidity to 0% and increasing to 40%", "procedure": "Vapour sorption experiments were performed in the instrument SPSx-1µ (Projekt Messtechnik, Ulm, Germany) at temperature of 25°C and the humidity cycles as shown below.\nA dynamic vapor sorption experiment was performed with Ruxolitinib besylate. At a constant temperature of 25°C, the substance was exposed to two cycles of varying relative humidity (rh) (40% → 0% →95% (75% r.h. kept constant for 48h) → 0% →40%). Figure 3a presents the relative weight change as a function of time and relative humidity and in […] changes are illustrated as a function of humidity."}, "[3]": {"assay": "pH-dependency of solubility at 37°C", "details": "for solubility: 37°C", "source_text": "The intestinal tract obeys different pH ranges, which vary from pH 1 to 2 of the empty stomach, pH 3-5 for stomach filled with chyme, to pH 5-7.5 of the colon."}, "[4]": {"assay": "Storage stability: chemical purity by HPLC/UV", "details": "for Chemical purity ([area-%] at λ=230 nm): 40°C/75% rh", "procedure": "as §1\nThe results of determination of the chemical purity during storage at 40°C/75% rh are summarized. […] Therefore, the analysis of samples, which were stored at 25°C/60% rh, was omitted."}}}
{"smiles": "N#CC[C@H](C1CCCC1)n1cc(-c2ncnc3[nH]ccc23)cn1", "note": "[Ruxolitinib besylate, Ruxolitinib benzenesulfonate]", "values": [{"measurement": "stability upon storage (in words)", "setting": "[1]; 25°C and 60% relative humidity (RH), up to at least 12 weeks", "value": "stable"}, {"measurement": "solid-state stability by XRPD (in words)", "setting": "[1]; 25°C/60% rh, throughout the observation period", "value": "remained unchanged"}, {"measurement": "weight after desorption and re-sorption (in words)", "setting": "[2]", "value": "resulted in the initial starting weight"}, {"measurement": "solubility at 0.5 h", "setting": "[3]; 0.1m hcl, pH 1.2, 37°C, 0.1M HCl pH1.2, 0.5 h", "value": 9600, "unit": "µg/mL"}, {"measurement": "solubility at 1 h", "setting": "[3]; 0.1m hcl, pH 1.2, 37°C, 0.1M HCl pH1.2, 1 h", "value": 9600, "unit": "µg/mL"}, {"measurement": "solubility at 24 h", "setting": "[3]; 0.1m hcl, pH 1.2, 37°C, 0.1M HCl pH1.2, 24 h", "value": 9300, "unit": "µg/mL"}, {"measurement": "solubility at 1 h", "setting": "[3]; 20mm naoac, pH 4.5, 37°C, 20mM (NaOAc / NaAc) -pH 4.5, 1 h", "value": 7100, "unit": "µg/mL"}, {"measurement": "solubility", "setting": "[3]; 20mM (NaOAc / NaAc) -pH 4.5, 0.5 h", "value": 6700, "unit": "µg/mL"}, {"measurement": "solubility", "setting": "[3]; 20mM (NaOAc / NaAc) -pH 4.5, 24 h", "value": 6100, "unit": "µg/mL"}, {"measurement": "solubility", "setting": "[3]; 50mM KH2PO4 pH 6.8, 24 h", "value": 5800, "unit": "µg/mL"}, {"measurement": "solubility at 0.5 h", "setting": "[3]; 50mm kh2po4, pH 6.8, 37°C, 50mM KH2PO4 pH 6.8, 0.5 h", "value": 6800, "unit": "µg/mL"}, {"measurement": "solubility at 1 h", "setting": "[3]; 50mm kh2po4, pH 6.8, 37°C, 50mM KH2PO4 pH 6.8, 1 h", "value": 7000, "unit": "µg/mL"}, {"measurement": "chemical stability during storage (in words)", "setting": "[4]; 40°C/75% rh, 4, 8 and 12 weeks", "value": "remained chemically stable"}, {"measurement": "Chemical purity ([area-%] at λ=230 nm)", "setting": "[4]; closed container, 4 weeks", "value": 98.14, "unit": "% area-%"}, {"measurement": "Chemical purity ([area-%] at λ=230 nm)", "setting": "[4]; closed container, 8 weeks", "value": 98.27, "unit": "% area-%"}, {"measurement": "Chemical purity ([area-%] at λ=230 nm)", "setting": "[4]; closed container, 12 weeks", "value": 98.06, "unit": "% area-%"}, {"measurement": "Chemical purity ([area-%] at λ=230 nm)", "setting": "[4]; closed container, t = 00 (= initial)", "value": 98.16, "unit": "area-%"}, {"measurement": "Chemical purity ([area-%] at λ=230 nm)", "setting": "[4]; open container, 4 weeks", "value": 98.16, "unit": "% area-%"}, {"measurement": "Chemical purity ([area-%] at λ=230 nm)", "setting": "[4]; open container, 8 weeks", "value": 98.21, "unit": "% area-%"}, {"measurement": "Chemical purity ([area-%] at λ=230 nm)", "setting": "[4]; open container, 12 weeks", "value": 98.22, "unit": "% area-%"}, {"measurement": "Chemical purity ([area-%] at λ=230 nm)", "setting": "[4]; open container, t = 00 (= initial)", "value": 98.16, "unit": "area-%"}]}
